Three compounds from US12151028B2, “Drug delivery systems comprising solid solutions of weakly basic drugs” (Adare Pharmaceuticals, Inc., priority 2006, dated 2024) can be followed below.

In brackets after ≈: the same amount, converted by molar mass. Structures can show the parent of a compound that is named as a salt. Where two headings read alike, the source gives them in different places.

Data set [1] can be described thus: Intrinsic dissolution rate measurements. It is filed as physicochemical. The note with it: crystalline polymorphs (Polymorph I, Polymorph II). The method, then:
Intrinsic dissolution rates were determined for two different polymorphs of lercanidipine hydrochloride as well as amorphous materials (e.g., amorphous drug and 1:2 solid solutions of lercanidipine hydrochloride with Methocel E5 and Kollidon VA 64).

A short description of data set [2]: Turbidity measurements (transmittance of drug/polymer solutions in pH 6.0 buffer). The class given is physicochemical. To be noted: buffer pH 6.0 containing Kollidon VA 64, Methocel E5, PEG 6000, cyclodextrin or Kollidon 14 PF; drug:polymer 1:2. The method, then:
A concentrated solution (3 mL) of lercanidipine hydrochloride in acetone (0.5 mg/ml) was added to 200 mL of a buffer solution (pH 6.0) containing Kollidon VA 64, Methocel E5 (hypromellose), polyethylene glycol (PEG 6000), cyclodextrin or Kollidon 14 PF (polyvinyl pyrrolidone) at the ratio of 1:2 by weight with respect to the polymer.

The solubility is the concentration that dissolves in the medium under given conditions. Higher therefore signals a readily soluble substance.

On to `O=C1CN=C(c2ccccc2Cl)c2cc([N+](=O)[O-])ccc2N1` [Clonazepam, clonazepam], for which the solubility was 29 µg/mL (≈ 91.9 µM) in the data set “physchem” (pH 2.84, aqueous buffer); 23 µg/mL (≈ 72.9 µM) in “physchem” (pH 2.92, aqueous buffer); 22 µg/mL (≈ 69.7 µM) in the data set “physchem” (pH 3, aqueous buffer); 21 µg/mL (≈ 66.5 µM) in “physchem” (pH 3.32, aqueous buffer); 18 µg/mL (≈ 57 µM) in “physchem” (pH 4.21, aqueous buffer); 18 µg/mL (≈ 57 µM) in the data set “physchem” (pH 6.39, aqueous buffer).

Take `Cc1nccn1CC1CCc2c(c3ccccc3n2C)C1=O` (centres unmarked) [Ondansetron Hydrochloride, ondansetron hydrochloride]: the “Solubility of Ondansetron Hydrochloride in Fumaric Acid” value reads like this: (fumaric acid 0.25 mg/mL, start pH 2.79, end pH 2.75) 26200 µg/mL; (pH 2.13) 26900 µg/mL; (pH 3.49) “about 26 mg/mL”.

Take `COC(=O)C1=C(C)NC(C)=C(C(=O)OC(C)(C)CN(C)CCC(c2ccccc2)c2ccccc2)C1c1cccc([N+](=O)[O-])c1` (centres unmarked) [lercanidipine hydrochloride]: the “Intrinsic dissolution rate and extent of dissolution” value in data set [1] is “poor dissolution rates”. In addition, the “Stability of drug solution against crystallization (turbidity)” value in data set [2] is recorded as “improved stability”.
